# Test results as given in US11214803B2, “Modulators of YAP1 expression” (Ionis Pharmaceuticals, Inc., priority 2019, dated 2022).
# Marks after values point to notes of the source that are not given here. Strand notation (5' to 3'): a small letter for the sugar, then the base; units joined by * are phosphorothioate-linked, units joined directly phosphodiester-linked; [ ] holds rarer units or linkages, { } end groups; capitals alone tell only the bases. k = constrained ethyl (cEt); [5mC] = 5-methylcytosine; d = 2'-deoxy (DNA)
# Test system: Yap1 mRNA
# Assay: Antisense inhibition of human Yap1 in A-431 cells by cEt gapmers, single dose (Example 2, RTS4814)
# Format: cell-based
# Outline: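 Free uptake, 2,000 nM, ~48 h, A-431 at 5,000 cells/well. Readout: RT-qPCR (RTS4814), RIBOGREEN-normalized, % UTC. 16-mer 3-10-3 cEt gapmers, full PS backbone, all C as 5-methylcytosine.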
# [1] = Table 19, A-431 cells, 5,000 cells per well, free uptake, 2,000 nM modified oligonucleotide, approx. 48 hours, RTS4814, normalized to RIBOGREEN, Yap1 mRNA as percent of untreated control
# [2] = Table 23, Yap1 mRNA as percent of untreated control, 3-10-3 cEt gapmers, single dose
# [3] = Table 33, Yap1 mRNA, percent of untreated control, 3-10-3 cEt gapmers targeting SEQ ID NO.: 1, and 2
# [4] = Yap1 mRNA as percent of untreated control, A-431 cells, 3-10-3 cEt gapmers targeting SEQ ID NO.: 1, and 2, Table 30
# [5] = Table 25, Yap1 mRNA as percent of untreated control, 3-10-3 cEt gapmers targeting SEQ ID NO.: 1, and 2
# [6] = Table 6, A-431 cells, 5,000 cells per well, free uptake, 2,000 nM modified oligonucleotide, approx. 48 hours, RTS4814, normalized to RIBOGREEN, Yap1 mRNA relative to untreated control cells
# [7] = Table 32, Yap1 mRNA, percent of untreated control, 3-10-3 cEt gapmers targeting SEQ ID NO.: 1, and 2
# [8] = Table 5, A-431 cells, 5,000 cells per well, free uptake, 2,000 nM modified oligonucleotide, approx. 48 hours, RTS4814, normalized to RIBOGREEN, Yap1 mRNA relative to untreated control cells
# [9] = Yap1 mRNA as percent of untreated control, A-431 cells, 3-10-3 cEt gapmers targeting SEQ ID NO.: 1, and 2, Table 31
# [10] = Table 24, Yap1 mRNA as percent of untreated control, 3-10-3 cEt gapmers targeting SEQ ID NO.: 1, and 2
# [11] = Table 22, Yap1 mRNA as percent of untreated control, 3-10-3 cEt gapmers, single dose
# [12] = Table 20, Yap1 mRNA, percent of untreated control, 3-10-3 cEt gapmers targeting SEQ ID NO.: 1 and 2
substance,measurement,setting,value
1075173 (antisense k[5mC]*kT*kT*dT*dA*dG*dG*dG*d[5mC]*dA*dA*d[5mC]*dT*kG*kT*kA) [Compound 1075173],YAP1 (% UTC),[1],22 % UTC
1075529 (kA*kA*kA*dT*d[5mC]*dG*dA*dA*dG*dG*dG*d[5mC]*dA*kA*kA*k[5mC]; antisense) [Compound 1075529],YAP1 (% UTC),[2],84 % UTC
1074597 (antisense kA*kG*kT*dA*dT*dT*d[5mC]*dT*dA*dT*d[5mC]*d[5mC]*dA*kG*kG*kG) [Compound 1074597],YAP1 (% UTC),[1],5 % UTC
1075283 (antisense k[5mC]*kG*kA*dA*dT*dA*dT*dA*dG*dA*dA*dA*dA*kA*kT*kG) [compound 1075283],YAP1 (% UTC),[3],90 % UTC
1074704 (antisense k[5mC]*kA*k[5mC]*dG*dG*dT*dG*dT*dA*dA*dG*dA*d[5mC]*kA*kA*kG) [compound 1074704],YAP1 (% UTC),[4],16 % UTC
1076075 (kA*k[5mC]*kA*d[5mC]*dA*dA*dG*dG*dG*dT*dT*dG*d[5mC]*kT*kA*kA; antisense) [Compound 1076075],YAP1 (% UTC),[5],38 % UTC
716384 (kA*kG*kG*dA*d[5mC]*d[5mC]*dT*dG*dA*dA*dG*d[5mC]*d[5mC]*kG*kA*kG; antisense) [Compound 716384],YAP1 (% UTC),[6],71 % UTC
1075536 (kT*kT*kA*dA*dT*dT*dA*d[5mC]*d[5mC]*d[5mC]*dA*dA*dG*kG*kA*k[5mC]; antisense) [compound 1075536],YAP1 (% UTC),[4],55 % UTC
716507 (antisense kA*k[5mC]*kT*dA*d[5mC]*dT*d[5mC]*dT*dA*dA*dA*dA*d[5mC]*kT*k[5mC]*k[5mC]) [Compound 716507],YAP1 (% UTC),[6],53 % UTC
1074832 (kG*k[5mC]*kG*dA*dG*dG*dA*dT*dA*dA*dA*dA*dT*k[5mC]*k[5mC]*kA; antisense) [compound 1074832],YAP1 (% UTC),[4],17 % UTC
1074731 (antisense k[5mC]*kA*kG*dG*dT*dA*dT*d[5mC]*dA*d[5mC]*dA*dG*dT*kA*k[5mC]*kT) [Compound 1074731],YAP1 (% UTC),[5],19 % UTC
1075561 (kG*kT*kA*dA*dG*dT*dA*dA*dG*dG*dG*dA*dA*k[5mC]*k[5mC]*k[5mC]; antisense) [Compound 1075561],YAP1 (% UTC),[2],32 % UTC
1075154 (k[5mC]*kA*kT*dT*dA*dT*dA*dA*dT*dG*dG*dG*dA*kG*kG*kA; antisense) [compound 1075154],YAP1 (% UTC),[7],13 % UTC
716552 (kT*kT*kT*d[5mC]*dT*d[5mC]*dA*dG*dA*dT*dG*dT*dA*k[5mC]*k[5mC]*kA; antisense) [Compound 716552],YAP1 (% UTC),[6],53 % UTC
716407 (k[5mC]*kT*kT*dA*dG*dT*d[5mC]*d[5mC]*dA*d[5mC]*dT*dG*dT*k[5mC]*kT*kG; antisense) [Compound 716407],YAP1 (% UTC),[8],35 % UTC
1074953 (antisense kG*kG*kG*dT*dT*dT*dT*dT*dG*dT*d[5mC]*dA*dT*k[5mC]*kA*kG) [Compound 1074953],YAP1 (% UTC),[2],32 % UTC
1074601 (antisense k[5mC]*k[5mC]*kA*dG*d[5mC]*dT*dA*dA*d[5mC]*dT*d[5mC]*dA*dA*kA*kA*k[5mC]) [Compound 1074601],YAP1 (% UTC),[2],24 % UTC
1074898 (antisense kA*kA*k[5mC]*dT*dT*dT*dT*dG*dG*dG*d[5mC]*dA*dA*kA*kG*kT) [compound 1074898],YAP1 (% UTC),[7],101 % UTC
716363 (k[5mC]*kG*kG*dA*d[5mC]*dG*dG*d[5mC]*dG*dG*dG*d[5mC]*d[5mC]*k[5mC]*kT*kG; antisense) [Compound 716363],YAP1 (% UTC),[6],103 % UTC
1074437 (kA*k[5mC]*kA*dT*dG*dA*dA*dG*d[5mC]*dA*dT*d[5mC]*dT*kG*kA*k[5mC]; antisense) [Compound 1074437],YAP1 (% UTC),[1],4* % UTC
716572 (k[5mC]*kA*kG*dT*dA*dA*dG*dA*dA*dG*d[5mC]*d[5mC]*dA*kA*kA*kA; antisense) [Compound 716572],YAP1 (% UTC),[8],122 % UTC
716427 (kA*kG*k[5mC]*d[5mC]*d[5mC]*d[5mC]*d[5mC]*dA*dA*dA*dA*dT*dG*kA*kA*k[5mC]; antisense) [Compound 716427],YAP1 (% UTC),"A-431 cells, 5,000 cells per well, free uptake, 2,000 nM modified oligonucleotide, approx. 48 hours, RTS4814, normalized to RIBOGREEN, Table 4, asterisk (*) = targets amplicon region of primer probe set",86 % UTC
1076113 (kT*kG*kA*d[5mC]*dA*dA*dT*dA*dG*d[5mC]*d[5mC]*dA*dA*kT*kG*k[5mC]; antisense) [compound 1076113],YAP1 (% UTC),[9],16 % UTC
1074154 (antisense k[5mC]*k[5mC]*kA*d[5mC]*dG*dG*dG*d[5mC]*d[5mC]*dG*dA*dG*dG*kT*kG*kG) [Compound 1074154],YAP1 (% UTC),[10],100 % UTC
1076435 (k[5mC]*kG*kT*dA*dA*dA*d[5mC]*dA*dT*d[5mC]*dA*dT*d[5mC]*kT*k[5mC]*kT; antisense) [compound 1076435],YAP1 (% UTC),[3],12 % UTC
1074504 (kT*k[5mC]*kG*dA*dG*dA*dT*dT*dT*dA*dA*dA*dT*kA*kA*kG; antisense) [Compound 1074504],YAP1 (% UTC),[11],76 % UTC
1075985 (kA*kT*kA*dT*d[5mC]*dG*dA*dA*dA*dA*dG*d[5mC]*dA*kA*kA*k[5mC]; antisense) [compound 1075985],YAP1 (% UTC),[9],82 % UTC
1076264 (kA*k[5mC]*k[5mC]*d[5mC]*dA*dA*dT*dA*dA*d[5mC]*d[5mC]*dA*dA*kG*kT*kG; antisense) [Compound 1076264],YAP1 (% UTC),[11],40 % UTC
1076083 (k[5mC]*kG*k[5mC]*dT*dA*dT*dA*dA*dA*dG*dT*dG*dG*k[5mC]*kA*kT; antisense) [compound 1076083],YAP1 (% UTC),[3],46 % UTC
716545 (kG*k[5mC]*kA*dT*dG*dT*dA*dT*dT*dT*dA*dA*dT*kA*kT*kG; antisense) [Compound 716545],YAP1 (% UTC),[8],91 % UTC
1074962 (antisense kA*kG*kG*d[5mC]*dA*dA*dG*d[5mC]*dA*dG*d[5mC]*dT*dA*kA*kA*kT) [compound 1074962],YAP1 (% UTC),[7],78 % UTC
1075178 (antisense k[5mC]*kT*kG*dG*dA*dA*dG*dA*dA*dA*dT*dT*dA*k[5mC]*k[5mC]*k[5mC]) [Compound 1075178],YAP1 (% UTC),[10],47 % UTC
1075364 (k[5mC]*kG*kA*dA*dA*dA*dT*dA*dG*dT*dT*d[5mC]*dT*k[5mC]*kA*kA; antisense) [Compound 1075364],YAP1 (% UTC),"Table 18, A-431 cells, 5,000 cells per well, free uptake, 2,000 nM modified oligonucleotide, approx. 48 hours, RTS4814, normalized to RIBOGREEN, Yap1 mRNA as percent of untreated control",59 % UTC
1075527 (kA*kT*kT*dT*dA*dA*dT*dT*dA*dA*dG*dG*dG*k[5mC]*k[5mC]*k[5mC]; antisense) [Compound 1075527],YAP1 (% UTC),"Table 21, Yap1 mRNA, percent of untreated control, 3-10-3 cEt gapmers targeting SEQ ID NO.: 1 and 2",82 % UTC
1074758 (k[5mC]*kA*kG*dT*dT*dA*dA*dG*d[5mC]*dA*d[5mC]*dT*dT*kT*kT*kA; antisense) [Compound 1074758],YAP1 (% UTC),[12],4 % UTC
1076261 (k[5mC]*k[5mC]*k[5mC]*d[5mC]*dA*dA*d[5mC]*dA*dA*dG*dT*dT*d[5mC]*k[5mC]*kT*kG; antisense) [Compound 1076261],YAP1 (% UTC),[1],39 % UTC
716571 (kG*k[5mC]*kT*dG*dA*dA*dG*d[5mC]*d[5mC]*dG*dA*dG*dT*kT*k[5mC]*kA) [Compound 716571],YAP1 (% UTC),"Table 7 (gapmers targeting SEQ ID NO: 3 and 4), A-431 cells, free uptake, 2,000 nM, approximately 48 hours, RTS4814",91 % UTC
716380 (kT*kT*kA*dA*dG*dA*dA*dG*dT*dA*dT*d[5mC]*dT*k[5mC]*kT*kG; antisense) [Compound 716380],YAP1 (% UTC),[8],54 % UTC
1074288 (antisense kG*kA*k[5mC]*dT*dG*dA*dT*dT*d[5mC]*dT*d[5mC]*dT*dG*kG*kT*kT) [compound 1074288],YAP1 (% UTC),[4],48 % UTC
1075058 (antisense kA*kT*kT*dA*d[5mC]*dA*dA*dA*dG*dT*dA*dG*d[5mC]*kA*kA*k[5mC]) [compound 1075058],YAP1 (% UTC),[7],66 % UTC
716399 (kA*kA*kT*dT*dT*dG*d[5mC]*dT*dG*dT*dG*d[5mC]*dT*kG*kG*kG; antisense) [Compound 716399],YAP1 (% UTC),[6],40 % UTC
1075920 (antisense kA*kA*kA*dG*dA*dA*dA*dG*d[5mC]*dT*dG*d[5mC]*dG*k[5mC]*kA*k[5mC]) [compound 1075920],YAP1 (% UTC),[4],108 % UTC
1074534 (antisense kT*kA*kA*dT*dA*dG*d[5mC]*dT*d[5mC]*dT*dT*dT*d[5mC]*kT*kA*kG) [Compound 1074534],YAP1 (% UTC),[12],88 % UTC
1075014 (antisense kG*kG*kA*dG*dA*dA*dA*dT*dA*dA*dA*dA*dG*kT*k[5mC]*kG) [Compound 1075014],YAP1 (% UTC),[12],46 % UTC
716540 (antisense kG*kA*kA*dA*dA*dG*dT*dT*dA*dT*dT*dA*d[5mC]*kA*kA*k[5mC]) [Compound 716540],YAP1 (% UTC),[6],120 % UTC
